From US12351574B2, “Selective ligands for modulation of GIRK channels” (Northeastern University, priority 2018, dated 2025)

Biological target: T1, GIRK1-S65Y with GIRK2 (UniProt P48542+P48549, S65Y)
T1 construct: expressed in transfected cells; host or cells: HEK293 cells
T1 sequence (P48549 1-501 S65Y): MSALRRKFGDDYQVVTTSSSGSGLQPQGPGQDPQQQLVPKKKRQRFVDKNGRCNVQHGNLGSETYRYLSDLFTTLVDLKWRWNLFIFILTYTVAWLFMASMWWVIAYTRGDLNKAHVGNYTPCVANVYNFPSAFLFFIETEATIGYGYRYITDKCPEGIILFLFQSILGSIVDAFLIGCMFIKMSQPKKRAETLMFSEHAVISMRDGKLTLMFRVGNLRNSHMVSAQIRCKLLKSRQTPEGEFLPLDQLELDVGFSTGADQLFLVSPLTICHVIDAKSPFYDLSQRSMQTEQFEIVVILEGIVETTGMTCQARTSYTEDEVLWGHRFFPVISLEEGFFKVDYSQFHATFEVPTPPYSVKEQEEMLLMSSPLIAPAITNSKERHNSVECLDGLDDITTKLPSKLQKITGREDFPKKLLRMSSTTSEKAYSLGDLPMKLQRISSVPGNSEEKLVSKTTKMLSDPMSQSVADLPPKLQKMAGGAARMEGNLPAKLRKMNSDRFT
T1 sequence (P48542 1-425): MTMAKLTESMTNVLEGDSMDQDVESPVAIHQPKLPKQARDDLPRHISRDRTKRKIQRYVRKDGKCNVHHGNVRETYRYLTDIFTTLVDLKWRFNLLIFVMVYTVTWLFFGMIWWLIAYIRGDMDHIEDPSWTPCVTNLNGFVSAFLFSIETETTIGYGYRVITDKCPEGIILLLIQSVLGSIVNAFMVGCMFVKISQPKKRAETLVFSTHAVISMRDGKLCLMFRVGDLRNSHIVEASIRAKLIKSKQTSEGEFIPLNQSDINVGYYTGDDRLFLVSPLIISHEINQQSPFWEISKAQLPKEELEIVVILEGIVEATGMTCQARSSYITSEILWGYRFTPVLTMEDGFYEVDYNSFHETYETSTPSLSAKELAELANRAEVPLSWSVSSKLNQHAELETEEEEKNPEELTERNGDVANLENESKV
Assay: 5-ptaseOCRL current inhibition, GIRK1/2 channels containing GIRK1-S65Y subunits
Assay type: cell-based, human GIRK1, mouse GIRK2
Conditions: 10 μM GAT1508
Excerpt: To identify changes in specific channel residue interactions with PIP2 upon ligand binding, the inventors carried out Principal Component Analysis (PCA) in the presence and absence of ML297 and GAT1508. The PCA analysis implicated changes in the slide (or interfacial) helix interactions with PIP2 upon ligand binding. Polar interactions could be formed between GIRK2^FD(Y76) and GIRK4^FD(Y71) with the P(4,5) of PIP2 when ML297 was bound to the same subunit (FIG. 39 top, FIG. 40). In contrast, when GAT1508 was bound this interaction was retained by GIRK2^FD but not GIRK4^FD (FIG. 39 bottom, FIG. 40). The corresponding GIRK1(S65) residue (FIG. 41, highlighted with vertical rectangle) could be serving the same role in stabilizing the phosphoinositol headgroup for interactions with non-ligand binding subunits. As polar residues, both Ser and Tyr could form H-bond interactions with PIP2. […]
Patch-clamp recording: Whole-cell currents were recorded with an Axopatch 200B amplifier (Molecular Devices) controlled via a USB-interface (National Instruments) using WinWCP software (University of Strathclyde). […] The barium-sensitive component of the current, observed when cells were perfused with the high-K^+ buffer, was analyzed and was determined by perfusing 5 mM BaCl2 in the high-K^+ buffer at the end of each experiment. […]

In the case of `Cc1cc(NC(=O)Nc2ccc(Br)s2)n(-c2ccccc2)n1` [GAT1508, 1-(5-bromothiophen-2-yl)-3-(3-methyl-1-phenyl-1H-pyrazol-5-yl)urea], the “protection of current from 5-ptaseOCRL (in words)” value is reported as “no additional effect”.
